Earlier results in US11406636B2, “Combined pharmaceutical composition” (Alepharma, Sociedad Anónima Promotora de inversión de …, priority 2017, dated 2022).
Read-outs that look alike come from different tables or passages of the source.

Assays:
[1] = tested on: CML formation; conditions: bovine serum with ribose, presence or absence of natural compounds
[2] = tested on: diabetic rats; conditions: 200 mg/kg weight orally for 8 weeks
[3] = tested on: bovine serum albumin, ribonuclease A and human hemoglobin; conditions: in vitro
[4] = tested on: streptozotocin-induced diabetic rat; conditions: for levels of methylglyoxal: increased by 68% in diabetic rats versus normal controls; for levels of glyoxal: increased by 115% in diabetic rats versus normal controls
[5] = not given; remark: listed apart in the source
[6] = physiological conditions, dose-dependent, forming adducts
[7] = within the first hour under physiological conditions

O=C(O)c1cc(O)c(O)c(O)c1 [gallic acid]
formation of CML [1]: increase the formation of CML

COc1cc(/C=C/C(=O)CC(=O)/C=C/c2ccc(O)c(OC)c2)ccc1O [curcumin, Curcumin]
accelerated accumulation of AGEs in the collagen, detected by ELISA [2]: prevented | accumulation of lipid peroxidation products in serums [2]: significantly reduced | collagen cross-linking in the tendon of the tail and skin [2]: extensively prevented | oxidative stress [2]: significantly reduced

Cc1ncc(CO)c(CN)c1O [pyridoxamine]
inhibition of the formation of AGEs, compared with aminoguanidine [3]: more effective than aminoguanidine

Cc1ncc(C[n+]2csc(CCO)c2C)c(N)n1 [thiamine, Thiamine]
inhibition of the formation of AGEs, compared with aminoguanidine [3]: more effective than aminoguanidine | levels of methylglyoxal [4]: normalized | levels of N-carboxymethyl-lysine (CML) ([4]; increased by 74% in diabetic rats): normalized | levels of glyoxal [4]: normalized | levels of N-carboxyethyl-lysine (CEL) ([4]; increased by 118% in diabetic rats): normalized

O=c1c(O)c(-c2ccc(O)c(O)c2)oc2cc(O)cc(O)c12 [quercetin, Quercetin]
formation of CML [1]: significantly inhibited the formation of CML | methylglyoxal trapped [6]: ≤ 80% | methylglyoxal trapped [7]: ≤ 50% | glyoxal trapped [5, 6]: up to 50% | glyoxal trapped [5, 7]: up to 30%

CC1(C)[C@@H](O)CC[C@]2(C)[C@H]3C(=O)C=C4[C@@H]5C[C@@](C)(C(=O)O)CC[C@]5(C)CC[C@@]4(C)[C@]3(C)CC[C@@H]12 [glycylrhetinic acid]
formation of CML [1]: significantly inhibited the formation of CML

CC1(C)[C@@H](O[C@H]2O[C@H](C(=O)O)[C@@H](O)[C@H](O)[C@H]2O[C@@H]2O[C@H](C(=O)O)[C@@H](O)[C@H](O)[C@H]2O)CC[C@]2(C)[C@H]3C(=O)C=C4[C@@H]5C[C@@](C)(C(=O)O)CC[C@]5(C)CC[C@@]4(C)[C@]3(C)CC[C@@H]12 [glycyrrhizin]
formation of CML [1]: significantly inhibited the formation of CML

C/C(=C(\CCOP(=O)(O)O)SC(=O)c1ccccc1)N(C=O)Cc1cnc(C)nc1N [benfotiamine]
levels of methylglyoxal [4]: normalized | levels of glyoxal [4]: normalized

C[C@@H]1O[C@@H](O[C@@H]2[C@@H](O)[C@H](OCCc3ccc(O)c(O)c3)O[C@H](CO)[C@H]2OC(=O)/C=C/c2ccc(O)c(O)c2)[C@H](O)[C@H](O)[C@H]1O [acteoside]
formation of CML [1]: increase the formation of CML

Cc1ncc(CO)c(CO)c1O [pyridoxine, Pyridoxine]
inhibition of the formation of AGEs, compared with aminoguanidine [3]: more effective than aminoguanidine
